Reference: ChEMBL document CHEMBL4387792, “Cytotoxic and Antibacterial Cervinomycins B1-4 from a Streptomyces Species” (J Nat Prod, 2019)
In brackets after ≈: the same amount, converted by molar mass. Activity calls are given as the source filed them. The calls are words filed in the database; no cut-off is given here.

Assays:
Staphylococcus aureus [1] = experiment: Antibacterial activity against methicillin-sensitive Staphylococcus aureus 15 assessed as prevention of visible bacterial growth incubated for 18 hrs by broth dilution method; assay type: functional, organism-based
Enterococcus faecium [2] = experiment: Antibacterial activity against vancomycin-resistant Enterococcus faecium 12-1 assessed as prevention of visible bacterial growth incubated for 18 hrs by broth dilution method; assay type: functional; conditions: 12-1, 18 h
SW1990 = experiment: Cytotoxicity against human SW1990 cells incubated for 72 hrs by MTT assay; assay type: functional, cell-based; conditions: SW1990, 72 h
Pseudomonas aeruginosa = experiment: Antibacterial activity against Pseudomonas aeruginosa ATCC 27853 assessed as prevention of visible bacterial growth incubated for 18 hrs by broth dilution method; assay type: functional, organism-based
Staphylococcus aureus [3] = experiment: Antibacterial activity against methicillin-resistant Staphylococcus aureus ATCC 33591 assessed as prevention of visible bacterial growth incubated for 18 hrs by broth dilution method; assay type: functional; conditions: ATCC 33591, 18 h
NCI-H1299 = experiment: Cytotoxicity against human NCI-H1299 cells incubated for 72 hrs by MTT assay; assay type: functional, cell-based; conditions: NCI-H1299, 72 h
[4] = tested on: Staphylococcus epidermidis; experiment: Antibacterial activity against methicillin-sensitive Staphylococcus epidermidis ATCC 12228 assessed as prevention of visible bacterial growth incubated for 18 hrs by broth dilution method; assay type: functional, organism-based
Enterococcus faecalis [5] = experiment: Antibacterial activity against vancomycin-resistant Enterococcus faecalis ATCC 51575 assessed as prevention of visible bacterial growth incubated for 18 hrs by broth dilution method; assay type: functional; conditions: ATCC 51575, 18 h
Enterococcus faecium [6] = experiment: Antibacterial activity against vancomycin-sensitive Enterococcus faecium 16-5 assessed as prevention of visible bacterial growth incubated for 18 hrs by broth dilution method; assay type: functional, organism-based
[7] = tested on: Acinetobacter calcoaceticus; experiment: Antibacterial activity against Acinetobacter calcoaceticus ATCC 19606 assessed as prevention of visible bacterial growth incubated for 18 hrs by broth dilution method; assay type: functional, organism-based
Enterococcus faecalis [8] = experiment: Antibacterial activity against vancomycin-resistant Enterococcus faecalis ATCC 51299 assessed as prevention of visible bacterial growth incubated for 18 hrs by broth dilution method; assay type: functional; conditions: ATCC 51299, 18 h
Staphylococcus aureus [9] = experiment: Antibacterial activity against methicillin-resistant Staphylococcus aureus 16-30 assessed as prevention of visible bacterial growth incubated for 18 hrs by broth dilution method; assay type: functional; conditions: 16-30, 18 h
Enterococcus faecalis [10] = experiment: Antibacterial activity against vancomycin-sensitive Enterococcus faecalis ATCC 29212 assessed as prevention of visible bacterial growth incubated for 18 hrs by broth dilution method; assay type: functional, organism-based
[11] = tested on: Staphylococcus epidermidis; experiment: Antibacterial activity against methicillin-sensitive Staphylococcus epidermidis 16-4 assessed as prevention of visible bacterial growth incubated for 18 hrs by broth dilution method; assay type: functional, organism-based
Klebsiella pneumoniae [12] = experiment: Antibacterial activity against extended-spectrum beta-lactamase producing Klebsiella pneumoniae 700603 assessed as prevention of visible bacterial growth incubated for 18 hrs by broth dilution method; assay type: functional, organism-based
[13] = tested on: Staphylococcus epidermidis; experiment: Antibacterial activity against methicillin-resistant Staphylococcus epidermidis 16-5 assessed as prevention of visible bacterial growth incubated for 18 hrs by broth dilution method; assay type: functional, organism-based
Enterobacter cloacae = experiment: Antibacterial activity against Enterobacter cloacae ATCC 43560 assessed as prevention of visible bacterial growth incubated for 18 hrs by broth dilution method; assay type: functional, organism-based
Klebsiella pneumoniae [14] = experiment: Antibacterial activity against extended-spectrum beta-lactamase non-producing Klebsiella pneumoniae 16-2 assessed as prevention of visible bacterial growth incubated for 18 hrs by broth dilution method; assay type: functional, organism-based
Enterococcus faecium [15] = experiment: Antibacterial activity against vancomycin-resistant Enterococcus faecium ATCC 700221 assessed as prevention of visible bacterial growth incubated for 18 hrs by broth dilution method; assay type: functional; conditions: ATCC 700221, 18 h
Enterococcus faecalis [16] = experiment: Antibacterial activity against vancomycin-sensitive Enterococcus faecalis 16-6 assessed as prevention of visible bacterial growth incubated for 18 hrs by broth dilution method; assay type: functional, organism-based
Escherichia coli [17] = experiment: Antibacterial activity against extended-spectrum beta-lactamase producing Escherichia coli ATCC 35218 assessed as prevention of visible bacterial growth incubated for 18 hrs by broth dilution method; assay type: functional, organism-based
Shigella flexneri = experiment: Antibacterial activity against Shigella flexneri ATCC 12022 assessed as prevention of visible bacterial growth incubated for 18 hrs by broth dilution method; assay type: functional, organism-based
PC-3 = experiment: Cytotoxicity against human PC3 cells incubated for 72 hrs by MTT assay; assay type: functional, cell-based; conditions: PC-3, 72 h
Staphylococcus aureus [18] = experiment: Antibacterial activity against methicillin-sensitive Staphylococcus aureus 16-1 assessed as prevention of visible bacterial growth incubated for 18 hrs by broth dilution method; assay type: functional, organism-based
Escherichia coli [19] = experiment: Antibacterial activity against extended-spectrum beta-lactamase non-producing Escherichia coli ATCC 25922 assessed as prevention of visible bacterial growth incubated for 18 hrs by broth dilution method; assay type: functional, organism-based
Staphylococcus aureus [20] = experiment: Antibacterial activity against methicillin-sensitive Staphylococcus aureus ATCC 29213 assessed as prevention of visible bacterial growth incubated for 18 hrs by broth dilution method; assay type: functional, organism-based

| SMILES | Activity (Staphylococcus aureus [1]) | MIC (Enterococcus faecium [2]) [µg/mL] | IC50 (SW1990) [nM] | Activity (Pseudomonas aeruginosa) | MIC (Staphylococcus aureus [3]) [µg/mL] | IC50 (NCI-H1299) [nM] | Activity [4] | MIC (Enterococcus faecalis [5]) [µg/mL] | Activity (Enterococcus faecium [6]) | Activity [7] | MIC (Enterococcus faecalis [8]) [µg/mL] | MIC (Staphylococcus aureus [9]) [µg/mL] | Activity (Enterococcus faecalis [10]) | Activity [11] | Activity (Klebsiella pneumoniae [12]) | Activity [13] | Activity (Enterobacter cloacae) | Activity (Klebsiella pneumoniae [14]) | MIC (Enterococcus faecium [15]) [µg/mL] | Activity (Enterococcus faecalis [16]) | further results |
| --- | --- | --- | --- | --- | --- | --- | --- | --- | --- | --- | --- | --- | --- | --- | --- | --- | --- | --- | --- | --- | --- |
| COc1cc2oc3c(O)c4c(c(O)c3c(=O)c2cc1OC)-c1c(cc2c(c1O)C(=O)N1CCO[C@]1(C)C2)CC4 | inactive | 0.03 (≈ 0.0564 µM) | 2.2 | inactive | 0.06 (≈ 0.113 µM) | 0.1 | inactive | 0.12 (≈ 0.226 µM) | inactive | inactive | 0.06 (≈ 0.113 µM) | 0.06 (≈ 0.113 µM) | inactive | inactive | inactive | inactive | inactive | inactive | 0.12 (≈ 0.226 µM) | inactive | Activity (Escherichia coli [17]): inactive; Activity (Shigella flexneri): inactive; IC50 (PC-3): 2.2 nM; Activity (Staphylococcus aureus [18]): inactive; Activity (Escherichia coli [19]): inactive; Activity (Staphylococcus aureus [20]): inactive |
| COc1cc2oc3c(O)c4c(c(O)c3c(=O)c2cc1O)-c1c(cc2c(c1O)C(=O)N1CCO[C@]1(C)C2)CC4 | inactive | 0.03 (≈ 0.058 µM) | 0.8 | inactive | 0.016 (≈ 0.0309 µM) | 49.1 | inactive | 0.016 (≈ 0.0309 µM) | inactive | inactive | 0.016 (≈ 0.0309 µM) | 0.008 (≈ 0.0155 µM) | inactive | inactive | inactive | inactive | inactive | inactive | 0.03 (≈ 0.058 µM) | inactive | Activity (Escherichia coli [17]): inactive; Activity (Shigella flexneri): inactive; IC50 (PC-3): 4.4 nM; Activity (Staphylococcus aureus [18]): inactive; Activity (Escherichia coli [19]): inactive; Activity (Staphylococcus aureus [20]): inactive |
| C[C@H]1COc2c(N3CCN(C)CC3)c(F)cc3c(=O)c(C(=O)O)cn1c23.C[C@H]1COc2c(N3CCN(C)CC3)c(F)cc3c(=O)c(C(=O)O)cn1c23.O [LEVOFLOXACIN] |  | 128 |  |  | 0.12 |  |  | 2 |  |  | 1 | 32 |  |  |  |  |  |  | 128 |  |  |
